Reference: patent US8710017B2, “Human and mouse targeting peptides identified by phage display” (priority 2000, dated 2014)
“Also recorded” adds a separate entry of the source. Ends that are not written are not given here. Peptide text beside a SMILES is read from it. * marks the point of attachment. Cbz = O=C(OCc1ccccc1)*; CH2F = FC*

Legend:
[1] = test system: HUVEC; test: Apoptosis by chromatin fragmentation (agarose gel) in HUVEC; assay type: cell-based, human
Method: 10^6 HUVEC were treated with 15 μM of VISY antennapedia (penetratin) chimera or 15 μM of antennapedia peptide (pentratin) alone for 2-4 hours and chromatin fragmentation was analyzed by electrophoresis in an agarose gel.

[2] = test system: placenta; test: Effect of placental targeting peptide conjugates on fetal development in pregnant mice; assay type: in vivo, mouse; conditions: for effect on pregnancy: FITC conjugated, lower dosages (450 μg total); for effect on fetal development: protein and phage conjugated, higher dosages (800 to 1000 μg protein or 4.5×10^10 phage)
From the text: The CARAC peptide (SEQ ID NO:46), an adipose targeting peptide (FE, TREVHRS, SEQ ID NO:47) or fd-tet phage were used as non-placental targeting controls.

[3] = target: T1, APA (SK-RC-49/APA cells) (Homo sapiens, UniProt Q07075); test: Cell panning of CX3CX3CX3C phage library on SK-RC-49/APA cells (insert frequency); assay type: cell-based; conditions: share of 18 randomly selected phage inserts, round 2
T1 construct: The renal carcinoma cell line SK-RC-49 was transfected with an expression vector encoding full-length APA cDNA; expressed in transfected cells; host or cells: SK-RC-49 renal carcinoma cells, stably transfected (G418)
Method: A CX3CX3CX3C(C, cysteine; X, any amino acid) library was prepared (Rajotte et al., 1998). […] Cells were detached by incubation with 2.5 mM EDTA in PBS, washed once in binding medium (DMEM high glucose supplemented with 20 mM HEPES and 2% FCS), and resuspended in the same medium at a concentration of 2×10^6 cells/ml. 10^10 TU of phage were added to 500 μl of the cell suspension, and the mixture was incubated overnight (first round) or for 2 h (successive rounds) at 4° C. with gentle rotation. Cells were washed five times in binding medium at room temperature and resuspended in 100 μl of the same medium. Phage were rescued by adding 1 ml of exponentially growing K91Kan Escherichia coli bacteria and incubating the mixture for 1 h at room temperature. Bacteria were diluted in 10 ml of LB medium supplemented with 0.2 μg/ml tetracycline and incubated for another 20 min at room temperature. Serial dilutions were plated on LB plates containing 40 μg/ml tetracycline, and plates were incubated at 37° C. overnight before colonies were counted.
The CX3CX3CX3C phage library (10^10 transducing units [TU]) was preadsorbed on parental SK-RC-49 cells to decrease nonspecific binding. […] SK-RC-49/APA-bound phage were amplified and used for two consecutive rounds of selection.

[4] = target: T1, APA (SK-RC-49/APA cells); test: Phage binding specificity assay on SK-RC-49/APA cells; assay type: cell-based
Method: The cell binding assay was performed with an input of 10^9 TU as described for the cell panning. The specificity was confirmed by adding […] (SEQ ID NO:123) peptide to the binding medium in increasing concentrations. For phage binding on immunocaptured APA, wells were blocked for 1 h at room temperature with PBS/3% BSA and incubated with 10^9 TU for 1 h at room temperature in 50 μl PBS/3% BSA. After eight washes in PBS/1% BSA/0.01% Tween-20 and two washes in PBS, phage were rescued by adding 200 μl of exponentially growing K91Kan E. coli. Each experiment was repeated at least three times.

[5] = test system: MDA-MB-435-derived tumor xenografts; test: In vivo tumor homing of APA-binding phage; set-up: species or system mouse; conditions: 10^9 TU iv, 5 min circulation, FIG. 22
Method: MDA-MB-435-derived tumor xenografts were established in female nude mice 2 months old (Jackson Labs, Bar Harbor, Me.). Mice were anesthetized with Avertin and injected intravenously through the tail vein with 10^9 TU of the phage in a 200 μl volume of DMEM. The phage were allowed to circulate for 5 min, and the animals were perfused through the heart with 5 ml of DMEM. The tumor and brain were dissected from each mouse, weighed, and equal amounts of tissue were homogenized. The tissue homogenates were washed three times with ice-cold DMEM containing a proteinase inhibitor cocktail and 0.1% BSA. Bound phage were rescued and counted as described for cell panning. Fd-tet phage was injected at the same input as a control. The experiment was repeated twice. In parallel, part of the same tissue samples were fixed in Bouin solution, and imbedded in paraffin for preparation of tissue sections. An antibody to M-13 phage (Amersham-Pharmacia) was used for the staining.

[6] = test system: adipose tissue; test: Validation of adipose homing phage by in vivo homing; set-up: species or system mouse; conditions: FIG. 2
Method: FIG. 2. Validation of adipose homing peptides. Phage bearing targeting peptides identified in Example 4 were injected into pregnant mice and their recovery from adipose tissue was compared to control fd-tet phage without targeting sequences.
The fat homing clones selected were: FA—KGGRAKD (SEQ ID NO:53), FC—RGEVLWS (SEQ ID NO:54), FE—TREVHRS (SEQ ID NO:47) and FX—VMGSVTG (SEQ ID NO:52).

[7] = test system: mouse placenta; test: In vivo biopanning for placenta homing phage with post-clearing (clone frequency per round); conditions: for frequency of phage clone in round III: round III of in vivo biopanning in pregnant mice; for frequency of phage clone in round IV: post-clearing in non-pregnant mouse
Method: Peptides homing to the mouse placenta were identified by a post-clearing protocol using a phage display library. A first round of biopanning was performed on pregnant mice. Samples of placenta were removed and phage rescued according to the standard protocols described above, with one modification. In the typical bipanning protocol, thousands of phage may be recovered from a single organ, tissue or cell type. Typically, between 200 and 300 individual colonies were selected from plated phage and these were amplified and pooled to form the phage display library for the second or third rounds of biopanning. In this example, all phage rescued from the first round of biopanning were amplified in bulk on solid medium and then pooled to form the phage display library for the second round of biopanning. That is, there was no restriction of the rescued phage from the first round of biopanning. This in vivo biopanning without restriction was performed for three rounds (rounds I-III), then a post-clearing procedure was used.
In the post-clearing protocol (round IV), phage were administered to a non-pregnant mouse. Phage that bound to tissues other than placenta were absorbed from the circulation. Remaining phage were recovered from the plasma of the non-pregnant mouse. This protocol was designed to isolate phage that bound to placenta but not to other mouse organs, tissues or cell types. The following placenta targeting peptides were identified, along with their frequencies. A search of the GenBank database disclosed that none of the SEQ ID NO's listed below was 100% homologous with any known peptide sequence.

[8] = test system: placenta; test: Validation of placenta homing phage: recovery from placenta of pregnant mice; assay type: in vivo, mouse; conditions: FIG. 1
From the text: FIG. 1. Validation of placenta homing phage. […] The placenta homing phage clones were: […] NO:43). The placenta homing peptides were validated in vivo by injection into pregnant mice and recovery from the placenta. […] The phage clones are identified as: […] NO:43).

[9] = target: T2, GST-β5 integrin (Homo sapiens, UniProt P18084); test: Annexin V binding to GST-β5 cytoplasmic domain (ELISA), competition with VISY peptide; conditions: FIG. 20A
T2 construct: Plates were coated with GST fusion proteins of the cytoplasmic domains of various integrins and Annexin V was added to the plates
T2 sequence (P18084 743-799 limits assumed): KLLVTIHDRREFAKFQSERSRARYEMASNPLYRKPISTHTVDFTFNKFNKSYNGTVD
Method: Competitive binding assays were performed to examine the binding of Annexin V to β5 integrin and the effect of the VISY peptide. Plates were coated with GST fusion proteins of the cytoplasmic domains of various integrins and Annexin V was added to the plates. Binding of Annexin V was determined using anti-Annexin V antibodies. […] Calcium was used because Annexin V activity has been reported to be modulated by calcium. Binding of Annexin V to GST-β5 was blocked by addition of the VISY peptide (FIG. 20A).
A reciprocal study was performed, using Annexin V to coat plates and adding GST fusion proteins of integrin cytoplasmic domains. Binding was assessed using anti-GST fusion protein antibodies. […] In some studies, calcium ion appeared to interfere with the binding interaction between GST-β5 and Annexin V, with decreased binding observed in the presence of calcium (not shown).

[10] = FITC conjugates-I, 1 mouse iv (predominantly) or ip ~every other day, day 1-day 18, 9 times, Total 450 μg)
[11] = FITC conjugates-II, 1 mouse sc (predominantly) or iv ~every other day, day 4-day 17, 10 times, Total 1M (~1 mg)

T1 sequence (Q07075 whole entry): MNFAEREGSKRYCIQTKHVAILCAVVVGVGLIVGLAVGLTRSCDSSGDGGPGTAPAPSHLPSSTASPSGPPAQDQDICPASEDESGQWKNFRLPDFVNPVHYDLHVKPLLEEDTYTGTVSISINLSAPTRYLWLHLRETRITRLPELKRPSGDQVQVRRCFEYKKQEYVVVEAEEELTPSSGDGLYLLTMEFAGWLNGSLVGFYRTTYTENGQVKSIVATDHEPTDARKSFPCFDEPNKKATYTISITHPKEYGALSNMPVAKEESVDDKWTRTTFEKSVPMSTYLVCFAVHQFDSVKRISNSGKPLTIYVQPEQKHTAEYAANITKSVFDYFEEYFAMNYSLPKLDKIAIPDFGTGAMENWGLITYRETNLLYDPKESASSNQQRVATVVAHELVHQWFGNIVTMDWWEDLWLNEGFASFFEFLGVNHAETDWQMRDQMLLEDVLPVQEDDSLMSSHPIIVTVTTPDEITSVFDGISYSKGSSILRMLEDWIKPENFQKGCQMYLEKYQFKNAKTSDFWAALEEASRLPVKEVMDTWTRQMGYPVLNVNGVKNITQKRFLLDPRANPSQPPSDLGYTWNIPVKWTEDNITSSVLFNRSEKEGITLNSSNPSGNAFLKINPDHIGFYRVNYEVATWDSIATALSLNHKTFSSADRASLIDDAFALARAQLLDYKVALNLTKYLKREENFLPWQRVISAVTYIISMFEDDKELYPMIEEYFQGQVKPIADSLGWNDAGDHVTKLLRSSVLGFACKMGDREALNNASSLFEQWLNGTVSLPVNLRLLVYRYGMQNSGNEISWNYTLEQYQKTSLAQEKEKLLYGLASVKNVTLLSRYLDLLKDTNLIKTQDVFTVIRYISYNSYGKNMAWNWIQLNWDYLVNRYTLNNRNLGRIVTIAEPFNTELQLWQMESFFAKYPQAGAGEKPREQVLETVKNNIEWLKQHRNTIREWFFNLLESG

COC(=O)C[C@H](NC(=O)[C@H](C)NC(=O)[C@@H](NC(=O)OCc1ccccc1)C(C)C)C(=O)CF [zVAD, reference compound] (Cbz-Val-Ala-Asp(OMe)-CH2F)
inhibition of VISY chimeric peptide-induced apoptosis ([1]; caspase inhibitor added at the same time as the VISY chimeric peptide): up to 70%

CARAC-FITC: CARAC peptide (SEQ ID NO:46) attached to FITC, non-placental targeting control (cysteine pairing not given here; also: attached to FITC, site not given here) [reference compound]
Peptide Effect on Embryo [2, 10]: No effect
Pregnancy Outcome [2, 10]: 18 d, 5 normal pups
Peptide Effect on Embryo [2, 11]: Slight toxicity?
Pregnancy Outcome [2, 11]: 20 d, 5 pups, 1-dead

CAVACWADCQLGC
Round 2 (%) [3]: 5%

CGTGCAVECEVVC
Round 2 (%) [3]: 5%
enrichment of phage binding on SK-RC-49/APA cells relative to SK-RC-49 parental cells ([4]; input 10^9 TU, not shown): no selective binding

CLGQCASICVNDC
Round 2 (%) [3]: 5%
displacement of phage binding by CPRECESIC peptide ([4]; data not shown): not affected
enrichment in tumor xenografts compared to brain tissue [5]: Neither CYNLCIRECESICGADGACWTWCADGCSRSC (SEQ ID NO:125) nor CLGQCASICVNDC (SEQ ID NO:126) phage showed any tumor-homing preference

CPKVCPRECESNC
Round 2 (%) [3]: 5%
enrichment in tumor xenografts compared to brain tissue [5]: 4 fold

CSGLCTVQCLEGC
Round 2 (%) [3]: 5%

CSMMCLEGCDDWC
Round 2 (%) [3]: 5%

GST-PA: PA peptide (TPKTSVT) attached to GST (glutathion S-transferase)
Peptide Effect on Embryo ([2]; GST conjugates-I, 1 mouse sc (predominantly) or iv ~every other day, day 4-day 17, 10 times, Total 800 μg): Pregnancy termination

KGGRAKD [fat-targeting peptide, fat homing phage clone FA]
homing to adipose tissue compared to control fd-tet phage [6]: some elevation of homing to adipose tissue

LGLRSVG [placenta targeting peptide, phage clone PE]
frequency of phage clone in round III [7]: < 1%
frequency of phage clone in round IV [7]: 5.3%
placental homing of phage compared to control fd-tet phage [8]: not substantially enriched in placenta

PA-FITC: placenta homer PA peptide (TPKTSVT) attached to FITC (fluorescein isothiocyanate) (also: FITC conjugate, site not given here)
Peptide Effect on Embryo [2, 10]: No effect
Pregnancy Outcome [2, 10]: 19 d, 8 normal pups
Peptide Effect on Embryo [2, 11]: Pregnancy termination
Pregnancy Outcome [2, 11]: No fetuses inside

PF-FITC: placenta homer PF peptide (YIRPFTL) attached to FITC (also: FITC conjugate, site not given here)
Peptide Effect on Embryo [2, 10]: Development delay,; also recorded: toxicity
Pregnancy Outcome [2, 10]: 21 d, 1 dead pup
Peptide Effect on Embryo [2, 11]: Pregnancy termination
Pregnancy Outcome [2, 11]: No fetuses inside

RAPGGVR [placenta targeting peptide, phage clone PC]
frequency of phage clone in round III [7]: < 1%
frequency of phage clone in round IV [7]: 8.5%
placental homing of phage compared to control fd-tet phage [8]: substantially higher placental localization

RGEVLWS [fat-targeting peptide, fat homing phage clone FC]
homing to adipose tissue compared to control fd-tet phage [6]: some elevation of homing to adipose tissue

RMDGPVR [placenta targeting peptide]
frequency of phage clone in round III [7]: 3.1%
frequency of phage clone in round IV [7]: 8.5%

TPKTSVT
frequency of phage clone in round III [7]: 7.4%
frequency of phage clone in round IV [7]: 8.5%
placental homing of phage compared to control fd-tet phage [8]: more than an order of magnitude greater

TPKTSVT: placenta targeting peptide, tested displayed on phage clone PA
effect on pregnancy [2]: slight effect on pregnancy
effect on fetal development [2]: substantially interfered with fetal development

TREVHRS [adipose targeting peptide, fat homing phage clone FE]
homing to adipose tissue compared to control fd-tet phage [6]: some elevation of homing to adipose tissue

VGLHARA [placenta targeting peptide]
frequency of phage clone in round III [7]: 4.2%
frequency of phage clone in round IV [7]: 7.4%

VMGSVTG [fat-targeting peptide, fat homing phage clone FX]
homing to adipose tissue compared to control fd-tet phage [6]: several orders of magnitude higher adipose localization

VVISYSMPD
effect on binding of Annexin V to GST-β5 [9]: blocked
induction of apoptosis (chromatin fragmentation) ([1]; 15 μM, 2-4 hours, FIG. 21): Neither VISY or penetratin alone induced apoptosis

YIRPFTL [placenta targeting peptide, phage clone PF]
frequency of phage clone in round III [7]: 2.1%
frequency of phage clone in round IV [7]: 5.3%
placental homing of phage compared to control fd-tet phage [8]: not substantially enriched in placenta

YIRPFTL: placenta targeting peptide, phage clone PF
effect on pregnancy [2]: slight effect on pregnancy
effect on fetal development [2]: substantially interfered with fetal development
